US20120302546A1, “NOVEL SULFAMIDES EXHIBITING NEUROPROTECTIVE ACTION AND METHODS FOR USE THEREOF” (FOX CHASE CHEMICAL DIVERSITY CENTER, INC., priority 2010, published 2012)

Legend:
Hippocampal Cultures [1] = experiment: Neuroprotection from glutamate excitotoxicity, CFDA neuronal viability assay; type: cell-based, rat; conditions: day 20 hippocampal cultures, 5 min 30 μM glutamate, CFDA assay 24 hours after initiation of treatment (FIG. 1-3)
Experimental: Pharmacology: Hydroxyethyl sulfamides attenuate glutamate-mediated neuronal viability. As an example, compound II, shown above, is shown to attenuate a decrease in carboxyfluorescein diacetate (CFDA) produced by acute treatment with glutamate in FIG. 1. For these studies, day 20 hippocampal cultures derived from E18 rats were treated for 5 min with 30 μM glutamate. Following removal of the glutamate, cultures were treated with various concentrations of compound II and the CFDA neuronal viability assay was conducted 24 hours after the initiation of treatment. The dotted line labeled “control” represents the mean CFDA value for control culture receiving no treatment. The dotted line labeled “carisbamate” represents the mean CFDA value for the reference compound carisbamate, a putative neuroprotective, anticonvulsant. For the CFDA measurements, RFU is the abbreviation for relative fluorescent units. The reference anticonvulsant compound carisbamate was tested at 100 μM, as lower concentrations were ineffective.
Cell cultures: All compounds are screened with dissociated hippocampal cultures derived from embryonic day 18 rats as the primary test system. With this preparation, primary neurons are used to test for toxicity as well as neuroprotection in a highly relevant experimental system to epilepsy. In brief, hippocampal tissue are obtained commercially through Brain Bits (Springfield, Ill.) and cultures prepared as previously described by Brewer (Brewer, G. J. Serum-free B27/neurobasal medium supports differentiated growth of neurons from the striatum, substantia nigra, septum, cerebral cortex, cerebellum and dentate gyms, J. Neurosci. Res. 1995, 42, 674-683.). The hippocampal neurons are platted at low density (10,000 cell/well) in a 96-well format and maintained in serum-free medium consisting of Neurobasal Medium supplemented with B27 and GlutaMAX (Gibco). Pre-coated poly-L-lysine coated plates are used because of the preferential adherence and survival of hippocampal neurons on this matrix support.
Carboxyfluorescein (CFDA) was used a vital stain for all cell toxicity and neuroprotection studies. With the use of the CytoFluor fluorimeter, the CFDA assay was employed to assess the viability of neurons. CFDA is a dye that becomes fluorescent upon cell entry and cleavage by cytosolic esterases (Petroski, R. E.; Geller, H. M Selective labeling of embryonic neurons cultures on astrocyte monolayers with 5(6)-carboxyfluorescein diacetate (CFDA). J. Neurosci. Methods 1994, 52, 23-32.). Neuronal specificity is obtained relative to astrocytes because the cleaved dye is extruded extracellularly by glia with time, while dye in neurons remains intracellular. […] To further assess the culture responses, a propidium iodide method was used as previously described (Sarafian, T. A.; Kouyoumjian, S.; Tashkin, D.; Roth, M. D. Synergistic cytotoxicity of 9-tetrahydrocannabianol and butylated hydroxyanisole, Tox. Letters, 2002. 133, 171-179.) to measure the number of dead cells. Propidium iodide becomes fluorescent when binding to the DNA of dead cells. Cultures were treated on day 2 with the test agent and then the two assays were conducted after a […] test period. For all assays, a 96-well format was used. For the screen, log concentration-effect studies were conducted from 10 nM to 1 mM with 8 replications. The duration of the test period was five days. Cultures were given a complete change of medium prior to the initiation of the treatment period.
Potent neuroprotection is the distinguishing characteristic that separates this program's anticonvulsants from all other commercial drugs for epilepsy. The experimental details and the rationale for the implemented assays are essential in differentiating these compounds from that of others. The central objective of all neuroprotective assays was their relevancy to excitotoxicity and oxidative stress related to epilepsy. […]

Hippocampal Cultures [2] = experiment: Neuroprotection from glutamate excitotoxicity, propidium iodide cell death assay; type: cell-based, rat; conditions: Day 15 Hippocampal Cultures, 30 μM glutamate (FIG. 5)
[3] = test system: 6 Hz corneal stimulation evoked seizures; experiment: 6 Hz psychomotor seizure test in mice; type: in vivo; conditions: Mouse 6 Hz, 100 mg/kg, intraperitoneal, vehicle methylcellulose
Experimental: Methods to measure anticonvulsant activity: All tests were conducted by the Anticonvulsant Screening Program (ASP) of the National Institute of Neurological Disease and Stroke at the National Institutes of Health. The 6 Hz Seizure Test: Compounds were further tested in the 6-Hz psychomotor seizure model (Barton et al., 2001). This model is used to detect seizures that may be useful for the treatment of therapy-resistant partial seizures. For this test, an alternative electrical stimulation paradigm is used with a low frequency (6 Hz), long duration (3 seconds) corneal stimulation. The seizure evoked by this low frequency stimulation is characterized by immobility, forelimb clonus, Straub tail and facial automatisms (Barton et al., 2001). Mice are tested from 15 min to 4 hours following an intraperitoneal dose of 100 mg/kg. Abolition of the clonic seizures indicates the ability of a compound to prevent partial or psychomotor seizures.

[4] = test system: MES-induced seizure spread; experiment: Maximal Electroshock Seizure (MES) test in rats; type: in vivo; conditions: Rat MES, 30 mg/kg, oral, vehicle methylcellulose
Experimental: (§1) Methods to measure anticonvulsant activity: All tests were conducted by the Anticonvulsant Screening Program (ASP) of the National Institute of Neurological Disease and Stroke at the National Institutes of Health. The Maximal Electroshock Seizure (MES) or Maximal Seizure Pattern Test: The MES is a model for generalized tonic-clonic seizures (Putnam and Merritt, 1937). It is highly reproducible with consistent endpoints. The behavioral and electrographic seizures generated in this model are consistent with the human disorder. This model identifies those compounds which prevent seizure spread. In the MES test, an electrical stimulus of 0.2 s in duration (50 mA in mice and 150 mA in rat at 60 Hz) is delivered via corneal electrodes primed with an electrolyte solution containing an anesthetic agent. Mice are tested at 30 minutes and 4 hours following doses of 30, 100 and 300 mg/kg of test compound. Test compounds are administered intraperitoneally to the mice. Rats are tested at time intervals between 0.25 and 4 hours following a standard oral dose of 30 mg/kg. Abolition of the hindlimb tonic extensor component indicates the test compound's ability to inhibit MES-induced seizure spread.

[5] = test system: MES-induced seizure spread; experiment: Maximal Electroshock Seizure (MES) test in mice; type: in vivo; conditions: Mouse MES, intraperitoneal, vehicle methylcellulose
Experimental: as §1

SMILES | effect on glutamate-mediated decrease in neuronal viability (CFDA) (Hippocampal Cultures [1]) | effect on glutamate-mediated increase in cell death (propidium iodide) (Hippocampal Cultures [2]) | # animals active/# animals tested ([3]; 0.25 hr) | # animals active/# animals tested ([3]; 0.5 hr) | # animals active/# animals tested ([3]; 1.0 hr) | # animals active/# animals tested ([3]; 2.0 hr) | # animals active/# animals tested ([4]; 0.25 hr) | # animals active/# animals tested ([4]; 0.5 hr) | # animals active/# animals tested ([5]; 30 mg/kg, 0.5 hr) | # animals active/# animals tested ([5]; 100 mg/kg, 0.5 hr) | # animals active/# animals tested ([5]; 300 mg/kg, 0.5 hr) | # animals active/# animals tested ([3]; 4.0 hr) | # animals active/# animals tested ([4]; 1 hr) | # animals active/# animals tested ([4]; 2 hr) | # animals active/# animals tested ([4]; 4 hr) | # animals active/# animals tested ([5]; 30 mg/kg, 4 hr) | # animals active/# animals tested ([5]; 100 mg/kg, 4 hr) | # animals active/# animals tested ([5]; 300 mg/kg, 4 hr)
NS(=O)(=O)NC[C@@H](O)c1ccccc1Cl [compound III] | efficacious | efficacious | – | – | – | – | – | – | – | – | – | – | – | – | – | – | – | –
NS(=O)(=O)NC[C@@H](O)c1ccccc1Cl [drawing 54] | – | – | 0/4 | 1/4 | 1/4 | 0/4 | 1/4 | 0/4 | 0/1 | 2/3 | 1/1 | – | – | – | – | – | – | –
NS(=O)(=O)NCC(O)c1ccccc1F (stereo not shown) [drawing 55] | – | – | 0/4 | 1/4 | 1/4 | 1/4 | – | – | – | – | – | 1/4 | 0/4 | 1/4 | 2/4 | 0/1 | 1/3 | 1/1
